The record followed here is ChEMBL document CHEMBL1137819, “New 9-thiocyanatopupukeanane sesquiterpenes from the nudibranch Phyllidia varicosa and its sponge-prey Axinyssa aculeata” (J Nat Prod, 2003).

One data set has as its system Artemia salina. The experiment in a line: Toxicity against Artemia salina assessed as mortality after 24 hrs. In kind it is organism-based. Particulars: in vivo.
In a further data set the test system is Bacillus subtilis. In words: Antimicrobial activity against Bacillus subtilis after 24 hrs. The format is functional, organism-based.
The next data set has as its system Candida albicans. In words: Antimicrobial activity against Candida albicans after 24 hrs. In kind it is functional, organism-based.

Structures are written as SMILES. “And” between values parts separate entries of the source, which are not always exact repeats. Identical values can stand only once. The source made the active and inactive calls. The rule behind the calls is not given here.

`CC(C)[C@@H]1C[C@]2(C)C[C@]3(C)C[C@H]1[C@H]2C[C@@H]3SC#N.CC(C)[C@@H]1C[C@]2(C)C[C@]3(C)C[C@H]1[C@H]2C[C@H]3SC#N`: in the data set with Artemia salina, the Activity was 90% and 35%; the LD50 is 5 ppm. Moreover, the result in the data set on Bacillus subtilis was inactive. Further, the result with Candida albicans was Active.
